Assay results taken from US6458783B1, “Non-imidazole benzodiazepine inhibitors of farnesyl protein transferase” (Bristol-Myers Squibb Company, priority 1997, dated 2002).
Counter-ions that a name gives are not always drawn.

## NC(CS)CN1CCN(C(=O)c2cccc3ccccc23)Cc2ccccc21 (racemic) (as salt: hydrochloride) [Example 1, (+,−)-1-(2-Amino-3-mercaptopropyl)-2,3,4,5-tetrahydro-4-(naphthalenylcarbonyl)-1H-1,4-benzodiazepine, Monohydrochloride]
  melting point: 140 °C
